From patent publication US20110003015A1, “STABILIZED COMPOSITION COMPRISING AT LEAST ONE ADRENERGIC COMPOUND” (ALK AG, priority 2009, published 2011)
Where two headings read alike, the source gives them in different places.

How the values were obtained:
[1] = Procedure: The formulation solutions were prepared at a level of 1.0 mg/ml adrenaline (in the form of the tartrate), pH 3.4 containing, 0.6% sodium chloride, with various molar ratios (0.25-0.59) of sodium metabisulfite added. The metabisulfite/adrenaline molar ratios tested were 0.25, 0.34, 0.42, 0.5 and 0.59, which correspond to sulfite/adrenaline ratios of 0.5, 0.68, 0.84, 1.0 and 1.18, respectively. For the ease of reference to the general description and claims of this specification, the said values correspond to a molar ratio of adrenaline to sulfite of 2.0, 1.47, 1.19, 1.0 and 0.85, respectively.
Each sample solution was split into two lots. For each sample solution, one lot was placed at the accelerated test temperature of 60° C., protected from light and the other lot placed in a photo-stability cabinet at 25° C. which provided 13400 lux visible light, 1.50 W.h/m^2 UV. Samples were pulled from both conditions at 0, 7, 14 and 28 days At each pull point, the appearance of the test solution was assessed, the pH measured and the adrenaline content measured together with impurities.

Remark: listed apart in the source
[2] = at the metabisulfite levels contemplated; 60° C.
Procedure: A 1.1 mg/ml solution of adrenaline (6.004×10^−3 M), in the form of the tartrate, pH 3.4 and containing 0.6% sodium chloride was used. A range of metabisulfite antioxidant concentrations, with and without admixture of 0.25% di-sodium edetate as chelating agent were tested. The metabisulfite/adrenaline molar ratios tested were 0.1, 0.2, 0.5, 1.0 and 1.5, which correspond to sulfite/adrenaline ratios of 0.2, 0.4, 1.0, 2.0 and 3.0, respectively. For the ease of reference to the general description and claims of this specification, the said values correspond to a molar ratio of adrenaline to sulfite of 5.0, 2.5, 1.0, 0.5 and 0.33, respectively.
The accelerated test temperature was 60° C., protected from light, and samples were pulled at 0, 7, 14, 21 and 28 days. At each pull point, the appearance of the test solution was assessed, the pH measured and the solution assayed for adrenaline content. The appearance of degradation products was noted as area %.
[adr]^+ relates to samples containing 0.025% di-sodium edetate, whereas [adr] relates to samples containing no chelating agent.

Q: Which “molar ratio of metabisulfite to adrenaline in which stability of adrenaline is improved” value [1] does the source give for `CNC[C@H](O)c1ccc(O)c(O)c1` [adrenaline, (R)-4-(1-hydroxy-2-(methylamino)ethyl)benzene-1,2-diol] here?
A: The value was 0.25-0.59.

Q: And the “optimum sulfite:adrenaline ratio” value ([1]; Examples 2 and 3 summarised, 60° C., FIGS. 8 and 9)?
A: The value was “about 1.0”.

Q: What about the “first choice of metabisulfite content with respect to adrenaline” value ([1]; considering both thermal and photo stresses) of the same compound?
A: The value was “half molar”.

Q: And the “best metabisulfite:adrenaline ratio on the basis of total impurities” value ([1]; heat stress 60° C.)?
A: The value was 0.42.

Q: And the “best metabisulfite:adrenaline ratio on the basis of total impurities” value ([1]; photo-stress, 25° C., 13400 lux visible light, 1.50 W.h/m^2 UV)?
A: Its value is 0.5.

Q: What about the “pH for maximum stability of epinephrine in solution” value of the same compound?
A: Its value is “about 3.4”.

Q: With `O=C([O-])CN(CCN(CC(=O)[O-])CC(=O)O)CC(=O)O.[Na+].[Na+]` [di-sodium edetate] as the compound, how does the “advantage of using a chelating agent for adrenaline solution stability” value [2] read?
A: Its value is “no advantage”.
